Experimental data taken from paper PMC9022229, “Induction of Paraptosis by Cyclometalated Iridium Complex-Peptide Hybrids and CGP37157 via a Mitochondrial Ca^2+ Overload Triggered by Membrane Fusion between Mitochondria and the Endoplasmic Reticulum” (Biochemistry, 2022).
Residues, ends and D or L forms follow the SMILES beside them. *: point of attachment. X1 = O=C(COc1ccc(-c2ccccn2)cc1)NCCCCCCCCN*

Legend:
[1] = tested on: mitofusin 1 (MFN1); assay: Western blot analysis of MFN1 in Jurkat cells; assay type: cell-based; conditions: for MFN1 band intensity relative to absence of compound: Figure S8B, 12 h
Method: In a 1.5 mL Eppendorf tube, Jurkat cells (1.0 × 10^6 cells) were incubated in the presence of 4 ([…]), CGP37157 (100 μM for 0–24 h or 0–100 μM for 12 h), and celastrol (0–10 μM for 24 h or 1 μM for 0–24 h) at 37 °C under 5% CO2. After the cells had been washed twice with PBS, the proteins were extracted by using RIPA buffer (Nacalai Tesque) and quantified using a Pierce BCA Protein Assay Kit (Thermo Scientific). Proteins (7.5 μg/well) for MFNs and DRP1 and proteins (5.0 μg/well) for GAPDH were used for sodium dodecyl sulfate–polyacrylamide gel electrophoresis (SDS–PAGE) (7.5% for MFNs and DRP1 and 10% for GAPDH) (Bio-Rad). After SDS–PAGE, the proteins were transferred to a polyvinylidene fluoride membrane (Merck Millipore) by using a semi dry blotter (Bio-Rad). The membrane was blocked with Blocking One solution (Nacalai Tesque) for 30 min at room temperature. After being blocked, the membrane was washed three times with 1× TBST and treated with primary antibodies overnight (at a dilution of 1/1000 for MFNs and DRP1 or 1/2000 for GAPDH) in a signal enhancer HIKARI-solution A (Nacalai Tesque). The membrane was washed three times with 1× TBST and treated with the anti-mouse or anti-rabbit IgG HRP-conjugated secondary antibody (at a dilution of 1/4000 for MFNs and DRP1 or 1/10000 for GAPDH) in 1× TBST for 60 min at room temperature. The protein signal was spotted with a Chemi-Lumi One Ultra solution (Nacalai Tesque) using the ChemiDoc MP system (Bio-Rad). […]

[2] = tested on: Jurkat cells; parameters: method as in PMID 25875312, PMID 28032992, doi:10.1002/ejic.201700846, PMID 30154833, PMID 30177492; conditions: Chart 1, previously reported; read-out: EC50 against Jurkat cells; cited from earlier work

| Structure (SMILES) | Expression level of MFN1 (Figure 11B) ([1]; CGP37157 100 μM, 1–6 h) | MFN1 band intensity relative to absence of compound ([1]; CGP37157 10 µM) | MFN1 band intensity relative to absence of compound ([1]; CGP37157 20 µM) | MFN1 band intensity relative to absence of compound ([1]; CGP37157 50 µM) | MFN1 band intensity relative to absence of compound ([1]; CGP37157 80 µM) | MFN1 band intensity relative to absence of compound ([1]; CGP37157 100 µM) | EC50 [2] [nM] |
| --- | --- | --- | --- | --- | --- | --- | --- |
| O=C1CSC(c2ccccc2Cl)c2cc(Cl)ccc2N1 (stereo not shown) [CGP37157] | weakly changed | 1.1 | 1.1 | 0.92 | 0.80 | 0.63 | – |
| NCCCC[C@H](NC(=O)[C@H](CCCCN)NC(=O)[C@@H](N)CCCCN)C(=O)NCC(=O)NCC(=O)NCCCCCCCCNC(=O)COc1ccc(-c2ccccn2)cc1 [compound 4] (H-KKKGG-X1) | – | – | – | – | – | – | 1500 |
